Measured values reported in PMC12027839, “Aging-Associated Amyloid-β Plaques and Neuroinflammation in Bottlenose Dolphins (Tursiops truncatus) and Novel Cognitive Health-Supporting Roles of Pentadecanoic Acid (C15:0)” (International Journal of Molecular Sciences, 2025).

How the values were obtained:
[1] = molecular target: T1, Fatty Acid Amide Hydrolase (FAAH) (Homo sapiens, UniProt O00519); assay: Enzyme assay with human recombinant FAAH (Sf21 cells), AMC arachidonoyl amide substrate, spectrofluorimetric, […] concentrations; assay type: biochemical
[2] = molecular target: T2, Monoamine oxidase B (MAO-B) (Homo sapiens, UniProt P27338); assay: Enzyme assay with human recombinant MAO-B (insect cells), kynuramine substrate, spectrofluorimetric, […] concentrations; assay type: biochemical
T2 construct: gene MAOB

[3] = molecular target: Catechol-O-Methyl Transferase (COMT) (Sus scrofa, UniProt Q99028); assay: biochemical; set-up: Eurofins Alzheimer's MoA LeadHunter enzyme assays; percent inhibition of enzyme activity, mean of duplicates; conditions: Ligand or Substrate=Esculetin
Protocol: (§1) Standardized enzyme and radioligand binding assays were used by an independent third party (Eurofins Discovery, Taiwan) to evaluate C15:0 across ten concentrations and up to 50 µM for activities as part of the Eurofins Discovery Alzheimer’s MoA LeadHunter Panel. Methods employed in this study were adapted from the scientific literature to maximize reliability and reproducibility. Reference standards were run as an integral part of each assay to ensure the validity of the results obtained. IC50 values were determined by a non-linear, least squares regression analysis using MathIQTM (ID Business Solutions Ltd., Woking, UK). This study included evaluated inhibition of the following targets by C15:0 using enzyme assays (Cholinesterase, Acetyl, ACES; Cholinesterase, Butyryl, CHLE; Peptidase, CTSB (Cathepsin B); Cyclooxygenase COX-1; Cyclooxygenase COX-2; Myeloperoxidase; IDO1; Monoamine Oxidase MAO-A; Monoamine Oxidase MAO-B; Peptidase, Endothelin Converting Enzyme-1 (ECE-1); Peptidase, Metalloproteinase, Neutral Endopeptidase; Peptidase, BACE1 (beta-Secretase); Protein Tyrosine Kinase, Fyn; Protein Serine/Threonine Kinase, GSK3B; Protein Serine/Threonine Kinase, MAPK14 (p38alpha); Protein Tyrosine Phosphatase, DUSP22; Fatty Acid Amide Hydrolase (FAAH); Nitric Oxide Synthetase, Inducible (iNOS); Catechol-O-Methyl Transferase (COMT); and Lipoxygenase 15-LOX-2) and radioligand binding assays (Adenosine A2A; Transporter, GABA; GABAA, Ro-15-1788, Hippocampus; Glutamate, AMPA; Glutamate, NMDA, MK-801; Glutamate, NMDA, Polyamine; Glutamate, Metabotropic, mGlu5; Histamine H3; Chemokine CX3CR1; Muscarinic M1; Nicotinic Acetylcholine alpha7, Methyllycaconitine; Serotonin (5-Hydroxytryptamine) 5-HT1A, WAY-100635; Serotonin (5-Hydroxytryptamine) 5-HT4B; Serotonin (5-Hydroxytryptamine) 5-HT6; Sodium Channel, Site 1; Somatostatin sst4; Sigma 2; Sigma1; Platelet Activating Factor (PAF)). Biochemical assay results were presented as the percent inhibition of specific binding or activity. […] Primary screening was conducted in duplicate with semi-quantitative data (e.g., estimated IC50). Significant responses (≥50% inhibition) were noted.

[4] = molecular target: T3, Cholinesterase, Acetyl, ACES (Homo sapiens, UniProt P22303); assay: biochemical; set-up: Eurofins Alzheimer's MoA LeadHunter enzyme assays; percent inhibition of enzyme activity, mean of duplicates; conditions: Ligand or Substrate=Acetylthiocholine
T3 construct: gene ACHE
Protocol: as §1

[5] = molecular target: T4, Cholinesterase, Butyryl, CHLE (Homo sapiens, UniProt P06276); assay: biochemical; set-up: Eurofins Alzheimer's MoA LeadHunter enzyme assays; percent inhibition of enzyme activity, mean of duplicates; conditions: Ligand or Substrate=S-Butyrylthiocholine
T4 construct: gene BCHE
Protocol: as §1

Cyclooxygenase COX-1 = molecular target: T5, Cyclooxygenase COX-1 (Homo sapiens, UniProt P23219); assay: biochemical; set-up: Eurofins Alzheimer's MoA LeadHunter enzyme assays; percent inhibition of enzyme activity, mean of duplicates; conditions: Ligand or Substrate=Arachidonic acid
T5 construct: gene PTGS1
Protocol: as §1

Cyclooxygenase COX-2 = molecular target: T6, Cyclooxygenase COX-2 (Homo sapiens, UniProt P35354); assay: biochemical; set-up: Eurofins Alzheimer's MoA LeadHunter enzyme assays; percent inhibition of enzyme activity, mean of duplicates; conditions: Ligand or Substrate=Arachidonic acid
T6 construct: gene PTGS2
Protocol: as §1

[6] = molecular target: T1, Fatty Acid Amide Hydrolase (FAAH); assay: biochemical; set-up: Eurofins Alzheimer's MoA LeadHunter enzyme assays; percent inhibition of enzyme activity, mean of duplicates; conditions: Ligand or Substrate=AMC arachidonoyl amide
Protocol: as §1

IDO1 = IDO1 (Homo sapiens, UniProt P14902); assay: biochemical; set-up: Eurofins Alzheimer's MoA LeadHunter enzyme assays; percent inhibition of enzyme activity, mean of duplicates; conditions: Ligand or Substrate=L-tryptophan (L-Trp)
Protocol: as §1

Lipoxygenase 15-LOX-2 = molecular target: T7, Lipoxygenase 15-LOX-2 (Homo sapiens, UniProt O15296); assay: biochemical; set-up: Eurofins Alzheimer's MoA LeadHunter enzyme assays; percent inhibition of enzyme activity, mean of duplicates; conditions: Ligand or Substrate=AMC arachidonoyl amide
T7 construct: gene ALOX15B
Protocol: as §1

Monoamine Oxidase MAO-A = molecular target: T8, Monoamine Oxidase MAO-A (Homo sapiens, UniProt P21397); assay: biochemical; set-up: Eurofins Alzheimer's MoA LeadHunter enzyme assays; percent inhibition of enzyme activity, mean of duplicates; conditions: Ligand or Substrate=Kynuramine
T8 construct: gene MAOA
Protocol: as §1

Monoamine Oxidase MAO-B = molecular target: T9, Monoamine Oxidase MAO-B (Homo sapiens, UniProt P27338); assay: biochemical; set-up: Eurofins Alzheimer's MoA LeadHunter enzyme assays; percent inhibition of enzyme activity, mean of duplicates; conditions: Ligand or Substrate=Kynuramine
T9 construct: gene MAOB
Protocol: as §1

Myeloperoxidase = molecular target: T10, Myeloperoxidase (Homo sapiens, UniProt P05164); assay: biochemical; set-up: Eurofins Alzheimer's MoA LeadHunter enzyme assays; percent inhibition of enzyme activity, mean of duplicates; conditions: Ligand or Substrate=Guaiacol
T10 construct: gene MPO
Protocol: as §1

[7] = molecular target: Peptidase, BACE1 (beta-Secretase) (Homo sapiens, UniProt P56817); assay: biochemical; set-up: Eurofins Alzheimer's MoA LeadHunter enzyme assays; percent inhibition of enzyme activity, mean of duplicates; conditions: Ligand or Substrate=MOCAc-S-E-V-N-L-D-A-E-F-R-K(Dnp)-R-R-NH2
Protocol: as §1

[8] = molecular target: Peptidase, CTSB (Cathepsin B) (Homo sapiens, UniProt P07858); assay: biochemical; set-up: Eurofins Alzheimer's MoA LeadHunter enzyme assays; percent inhibition of enzyme activity, mean of duplicates; conditions: Ligand or Substrate=Boc-Leu-Arg-Arg-AMC
Protocol: as §1

[9] = molecular target: T11, Peptidase, Endothelin Converting Enzyme-1 (ECE-1) (Homo sapiens, UniProt P42892); assay: biochemical; set-up: Eurofins Alzheimer's MoA LeadHunter enzyme assays; percent inhibition of enzyme activity, mean of duplicates; conditions: Ligand or Substrate=Mca-[…]Dnp)
T11 construct: gene ECE1
Protocol: as §1

[10] = molecular target: T12, Peptidase, Metalloproteinase, Neutral Endopeptidase (Homo sapiens, UniProt P08473); assay: biochemical; set-up: Eurofins Alzheimer's MoA LeadHunter enzyme assays; percent inhibition of enzyme activity, mean of duplicates; conditions: Ligand or Substrate=Mca-R-P-P-G-F-S-A-F-K(Dnp)-OH
T12 construct: gene MME
Protocol: as §1

[11] = molecular target: Protein Serine/Threonine Kinase, GSK3B (Homo sapiens, UniProt P49841); assay: biochemical; set-up: Eurofins Alzheimer's MoA LeadHunter enzyme assays; percent inhibition of enzyme activity, mean of duplicates; conditions: Ligand or Substrate=Phospho-glycogen synthase peptide-2
Protocol: as §1

[12] = molecular target: Protein Serine/Threonine Kinase, MAPK14 (p38alpha) (Homo sapiens, UniProt Q16539); assay: biochemical; set-up: Eurofins Alzheimer's MoA LeadHunter enzyme assays; percent inhibition of enzyme activity, mean of duplicates; conditions: Ligand or Substrate=Myelin Basic Protein (MBP)
Protocol: as §1

[13] = molecular target: Protein Tyrosine Kinase, Fyn (Homo sapiens, UniProt P06241); assay: biochemical; set-up: Eurofins Alzheimer's MoA LeadHunter enzyme assays; percent inhibition of enzyme activity, mean of duplicates; conditions: Ligand or Substrate=Poly(Glu:Tyr)
Protocol: as §1

[14] = molecular target: Protein Tyrosine Phosphatase, DUSP22 (Homo sapiens, UniProt Q9NRW4); assay: biochemical; set-up: Eurofins Alzheimer's MoA LeadHunter enzyme assays; percent inhibition of enzyme activity, mean of duplicates; conditions: Ligand or Substrate=DiFMUP
Protocol: as §1

Adenosine A2A = molecular target: T13, Adenosine A2A (Homo sapiens, UniProt P29274); assay: biochemical; set-up: Eurofins Alzheimer's MoA LeadHunter radioligand binding assays; percent inhibition of specific binding, mean of duplicates; conditions: Ligand or Substrate=[3H]CGS-21680
T13 construct: gene ADORA2A
Protocol: as §1

Chemokine CX3CR1 = Chemokine CX3CR1 (Homo sapiens, UniProt P49238); assay: biochemical; set-up: Eurofins Alzheimer's MoA LeadHunter radioligand binding assays; percent inhibition of specific binding, mean of duplicates; conditions: Ligand or Substrate=[125I]Fractalkine
Protocol: as §1

[15] = molecular target: T14, Glutamate, Metabotropic, mGlu5 (Homo sapiens, UniProt P41594); assay: biochemical; set-up: Eurofins Alzheimer's MoA LeadHunter radioligand binding assays; percent inhibition of specific binding, mean of duplicates; conditions: Ligand or Substrate=[3H]Quisqualic acid
T14 construct: gene GRM5
Protocol: as §1

Histamine H3 = molecular target: T15, Histamine H3 (Homo sapiens, UniProt Q9Y5N1); assay: biochemical; set-up: Eurofins Alzheimer's MoA LeadHunter radioligand binding assays; percent inhibition of specific binding, mean of duplicates; conditions: Ligand or Substrate=[3H]N-alpha-Methylhistamine (NAMH)
T15 construct: gene HRH3
Protocol: as §1

Muscarinic M1 = molecular target: T16, Muscarinic M1 (Homo sapiens, UniProt P11229); assay: biochemical; set-up: Eurofins Alzheimer's MoA LeadHunter radioligand binding assays; percent inhibition of specific binding, mean of duplicates; conditions: Ligand or Substrate=[3H]N-Methylscopolamine
T16 construct: gene CHRM1
Protocol: as §1

[16] = molecular target: T17, Nicotinic Acetylcholine alpha7, Methyllycaconitine (Rattus norvegicus, UniProt Q05941); assay: biochemical; set-up: Eurofins Alzheimer's MoA LeadHunter radioligand binding assays; percent inhibition of specific binding, mean of duplicates; conditions: Ligand or Substrate=[3H]Methyllycaconitine
T17 construct: gene Chrna7; methyllycaconitine site
Protocol: as §1

[17] = molecular target: T18, Platelet Activating Factor (PAF) (Homo sapiens, UniProt P25105); assay: biochemical; set-up: Eurofins Alzheimer's MoA LeadHunter radioligand binding assays; percent inhibition of specific binding, mean of duplicates; conditions: Ligand or Substrate=[3H]PAF
T18 construct: gene PTAFR
Protocol: as §1

[18] = molecular target: T19, Serotonin (5-Hydroxytryptamine) 5-HT1A, WAY-100635 (Homo sapiens, UniProt P08908); assay: biochemical; set-up: Eurofins Alzheimer's MoA LeadHunter radioligand binding assays; percent inhibition of specific binding, mean of duplicates; conditions: Ligand or Substrate=[3H]WAY100635
T19 construct: gene HTR1A; WAY-100635
Protocol: as §1

[19] = molecular target: T20, Serotonin (5-Hydroxytryptamine) 5-HT4B (Homo sapiens, UniProt Q13639); assay: biochemical; set-up: Eurofins Alzheimer's MoA LeadHunter radioligand binding assays; percent inhibition of specific binding, mean of duplicates; conditions: Ligand or Substrate=[3H]GR-113808
T20 construct: gene HTR4; isoform 5-HT4B
Protocol: as §1

[20] = molecular target: T21, Serotonin (5-Hydroxytryptamine) 5-HT6 (Homo sapiens, UniProt P50406); assay: biochemical; set-up: Eurofins Alzheimer's MoA LeadHunter radioligand binding assays; percent inhibition of specific binding, mean of duplicates; conditions: Ligand or Substrate=[3H]Lysergic acid diethylamide (LSD)
T21 construct: gene HTR6
Protocol: as §1

Sigma1 = molecular target: T22, Sigma1 (Homo sapiens, UniProt Q99720); assay: biochemical; set-up: Eurofins Alzheimer's MoA LeadHunter radioligand binding assays; percent inhibition of specific binding, mean of duplicates; conditions: Ligand or Substrate=[3H]Pentazocine
T22 construct: gene SIGMAR1
Protocol: as §1

Somatostatin sst4 = molecular target: T23, Somatostatin sst4 (Homo sapiens, UniProt P31391); assay: biochemical; set-up: Eurofins Alzheimer's MoA LeadHunter radioligand binding assays; percent inhibition of specific binding, mean of duplicates; conditions: Ligand or Substrate=[125I]Tyr11-Somatostatin 14
T23 construct: gene SSTR4
Protocol: as §1

T1 sequence (O00519 whole entry): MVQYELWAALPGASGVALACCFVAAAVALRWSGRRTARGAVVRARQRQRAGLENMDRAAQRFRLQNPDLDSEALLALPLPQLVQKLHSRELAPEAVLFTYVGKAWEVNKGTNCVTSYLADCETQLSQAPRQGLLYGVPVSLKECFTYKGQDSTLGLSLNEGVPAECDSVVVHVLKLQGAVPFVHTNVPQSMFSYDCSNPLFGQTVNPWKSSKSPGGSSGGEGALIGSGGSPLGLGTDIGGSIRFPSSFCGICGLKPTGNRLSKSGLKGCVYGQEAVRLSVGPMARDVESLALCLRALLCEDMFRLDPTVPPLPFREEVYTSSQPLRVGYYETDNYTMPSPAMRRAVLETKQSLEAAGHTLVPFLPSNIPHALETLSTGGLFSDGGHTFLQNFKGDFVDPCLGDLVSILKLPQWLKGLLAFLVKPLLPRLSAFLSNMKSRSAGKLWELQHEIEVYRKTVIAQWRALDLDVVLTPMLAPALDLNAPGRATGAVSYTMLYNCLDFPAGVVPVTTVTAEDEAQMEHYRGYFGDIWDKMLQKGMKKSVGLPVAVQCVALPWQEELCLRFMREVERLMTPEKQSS
T16 sequence (P11229 whole entry): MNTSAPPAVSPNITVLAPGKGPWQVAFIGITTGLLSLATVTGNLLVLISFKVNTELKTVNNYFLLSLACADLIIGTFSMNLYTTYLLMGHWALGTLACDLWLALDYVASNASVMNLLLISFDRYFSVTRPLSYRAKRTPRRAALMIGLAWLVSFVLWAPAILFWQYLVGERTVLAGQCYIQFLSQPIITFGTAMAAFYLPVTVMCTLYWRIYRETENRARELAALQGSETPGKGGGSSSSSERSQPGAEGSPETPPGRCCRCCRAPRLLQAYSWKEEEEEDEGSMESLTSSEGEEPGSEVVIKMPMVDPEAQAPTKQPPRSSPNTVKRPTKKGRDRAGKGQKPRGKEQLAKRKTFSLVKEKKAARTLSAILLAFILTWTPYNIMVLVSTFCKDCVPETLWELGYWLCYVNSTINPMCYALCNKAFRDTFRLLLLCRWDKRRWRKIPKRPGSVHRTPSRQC
T3 sequence (P22303 whole entry): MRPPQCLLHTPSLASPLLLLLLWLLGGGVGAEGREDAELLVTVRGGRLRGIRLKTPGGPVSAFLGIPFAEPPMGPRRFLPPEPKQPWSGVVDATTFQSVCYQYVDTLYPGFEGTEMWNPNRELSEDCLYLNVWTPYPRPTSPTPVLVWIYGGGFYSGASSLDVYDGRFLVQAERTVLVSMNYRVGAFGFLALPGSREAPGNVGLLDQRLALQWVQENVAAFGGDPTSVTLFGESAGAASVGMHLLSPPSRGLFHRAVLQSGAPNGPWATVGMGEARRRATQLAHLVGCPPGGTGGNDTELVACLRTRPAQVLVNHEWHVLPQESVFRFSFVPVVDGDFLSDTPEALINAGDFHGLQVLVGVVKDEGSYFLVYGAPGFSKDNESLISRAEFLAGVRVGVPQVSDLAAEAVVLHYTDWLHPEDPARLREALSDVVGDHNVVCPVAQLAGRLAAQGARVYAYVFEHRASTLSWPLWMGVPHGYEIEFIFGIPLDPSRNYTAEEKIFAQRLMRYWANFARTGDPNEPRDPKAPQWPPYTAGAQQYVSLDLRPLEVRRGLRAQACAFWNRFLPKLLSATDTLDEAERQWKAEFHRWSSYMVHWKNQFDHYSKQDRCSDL
T18 sequence (P25105 whole entry): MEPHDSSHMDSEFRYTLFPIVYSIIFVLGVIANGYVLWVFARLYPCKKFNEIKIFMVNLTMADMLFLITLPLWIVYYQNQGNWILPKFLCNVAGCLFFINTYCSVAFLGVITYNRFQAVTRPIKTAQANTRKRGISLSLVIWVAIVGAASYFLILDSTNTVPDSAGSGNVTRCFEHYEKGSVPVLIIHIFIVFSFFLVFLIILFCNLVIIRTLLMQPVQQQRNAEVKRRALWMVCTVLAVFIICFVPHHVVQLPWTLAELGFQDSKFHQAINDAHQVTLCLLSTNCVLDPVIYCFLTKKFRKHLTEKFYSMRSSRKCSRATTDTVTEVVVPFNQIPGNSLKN
T6 sequence (P35354 whole entry): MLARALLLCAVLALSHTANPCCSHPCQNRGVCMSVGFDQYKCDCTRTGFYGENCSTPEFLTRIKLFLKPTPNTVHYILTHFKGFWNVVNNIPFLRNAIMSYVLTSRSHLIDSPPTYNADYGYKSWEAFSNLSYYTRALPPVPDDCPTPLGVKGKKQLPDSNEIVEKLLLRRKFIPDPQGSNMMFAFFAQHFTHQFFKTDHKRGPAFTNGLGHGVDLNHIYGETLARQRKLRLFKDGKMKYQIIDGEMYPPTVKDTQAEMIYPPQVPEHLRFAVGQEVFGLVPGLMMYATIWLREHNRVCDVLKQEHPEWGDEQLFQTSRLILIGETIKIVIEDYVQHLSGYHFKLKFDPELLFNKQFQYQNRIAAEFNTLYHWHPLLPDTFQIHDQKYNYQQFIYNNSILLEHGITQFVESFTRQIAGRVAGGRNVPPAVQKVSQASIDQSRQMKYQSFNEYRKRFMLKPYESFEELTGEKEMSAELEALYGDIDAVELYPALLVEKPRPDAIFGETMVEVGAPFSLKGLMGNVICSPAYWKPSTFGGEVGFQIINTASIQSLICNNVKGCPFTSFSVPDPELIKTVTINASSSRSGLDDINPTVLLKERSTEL
T17 sequence (Q05941 whole entry): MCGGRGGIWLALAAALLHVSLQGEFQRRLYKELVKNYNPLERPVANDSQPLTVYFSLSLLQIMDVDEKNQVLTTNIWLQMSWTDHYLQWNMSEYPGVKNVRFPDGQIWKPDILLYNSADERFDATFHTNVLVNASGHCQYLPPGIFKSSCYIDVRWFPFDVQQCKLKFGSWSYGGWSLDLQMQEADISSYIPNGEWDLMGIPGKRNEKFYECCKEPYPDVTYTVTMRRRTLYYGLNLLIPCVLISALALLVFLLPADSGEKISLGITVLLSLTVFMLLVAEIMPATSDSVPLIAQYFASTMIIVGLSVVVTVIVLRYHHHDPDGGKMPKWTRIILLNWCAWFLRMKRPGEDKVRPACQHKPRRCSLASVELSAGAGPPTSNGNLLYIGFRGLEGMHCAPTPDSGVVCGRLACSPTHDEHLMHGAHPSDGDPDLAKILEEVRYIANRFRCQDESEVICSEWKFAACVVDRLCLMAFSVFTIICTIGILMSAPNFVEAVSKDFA
T13 sequence (P29274 whole entry): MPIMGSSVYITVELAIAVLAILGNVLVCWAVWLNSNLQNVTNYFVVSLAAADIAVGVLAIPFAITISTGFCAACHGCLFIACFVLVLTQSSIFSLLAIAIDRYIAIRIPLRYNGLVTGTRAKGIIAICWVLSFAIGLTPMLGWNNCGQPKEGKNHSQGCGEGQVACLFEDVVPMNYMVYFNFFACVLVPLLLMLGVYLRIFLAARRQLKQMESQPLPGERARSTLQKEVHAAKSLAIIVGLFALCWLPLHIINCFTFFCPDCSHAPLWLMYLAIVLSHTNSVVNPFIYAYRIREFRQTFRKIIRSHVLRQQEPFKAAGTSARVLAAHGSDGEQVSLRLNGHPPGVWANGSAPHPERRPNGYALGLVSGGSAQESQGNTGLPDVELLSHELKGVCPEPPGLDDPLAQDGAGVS
Sequence of Protein Serine/Threonine Kinase, GSK3B (P49841 whole entry): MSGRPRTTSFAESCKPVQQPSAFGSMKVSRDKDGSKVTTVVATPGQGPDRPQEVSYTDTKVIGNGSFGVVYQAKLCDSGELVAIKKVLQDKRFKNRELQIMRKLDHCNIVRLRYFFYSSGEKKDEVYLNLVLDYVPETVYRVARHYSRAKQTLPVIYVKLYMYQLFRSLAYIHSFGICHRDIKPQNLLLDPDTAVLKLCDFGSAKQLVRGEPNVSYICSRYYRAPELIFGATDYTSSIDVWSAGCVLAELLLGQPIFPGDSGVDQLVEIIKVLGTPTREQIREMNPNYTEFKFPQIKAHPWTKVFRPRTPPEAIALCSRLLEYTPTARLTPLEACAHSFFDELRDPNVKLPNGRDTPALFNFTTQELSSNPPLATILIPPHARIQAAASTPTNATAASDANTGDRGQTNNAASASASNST
Sequence of Chemokine CX3CR1 (P49238 whole entry): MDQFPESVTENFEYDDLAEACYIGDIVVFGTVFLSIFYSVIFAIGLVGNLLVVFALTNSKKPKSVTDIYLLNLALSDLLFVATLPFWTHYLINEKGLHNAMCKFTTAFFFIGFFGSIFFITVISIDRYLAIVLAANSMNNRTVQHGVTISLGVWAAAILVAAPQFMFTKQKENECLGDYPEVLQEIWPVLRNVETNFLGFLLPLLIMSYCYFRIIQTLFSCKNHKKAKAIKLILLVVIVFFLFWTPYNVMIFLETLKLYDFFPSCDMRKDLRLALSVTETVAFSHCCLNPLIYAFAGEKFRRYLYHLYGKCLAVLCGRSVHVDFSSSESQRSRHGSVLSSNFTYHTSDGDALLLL
T5 sequence (P23219 whole entry): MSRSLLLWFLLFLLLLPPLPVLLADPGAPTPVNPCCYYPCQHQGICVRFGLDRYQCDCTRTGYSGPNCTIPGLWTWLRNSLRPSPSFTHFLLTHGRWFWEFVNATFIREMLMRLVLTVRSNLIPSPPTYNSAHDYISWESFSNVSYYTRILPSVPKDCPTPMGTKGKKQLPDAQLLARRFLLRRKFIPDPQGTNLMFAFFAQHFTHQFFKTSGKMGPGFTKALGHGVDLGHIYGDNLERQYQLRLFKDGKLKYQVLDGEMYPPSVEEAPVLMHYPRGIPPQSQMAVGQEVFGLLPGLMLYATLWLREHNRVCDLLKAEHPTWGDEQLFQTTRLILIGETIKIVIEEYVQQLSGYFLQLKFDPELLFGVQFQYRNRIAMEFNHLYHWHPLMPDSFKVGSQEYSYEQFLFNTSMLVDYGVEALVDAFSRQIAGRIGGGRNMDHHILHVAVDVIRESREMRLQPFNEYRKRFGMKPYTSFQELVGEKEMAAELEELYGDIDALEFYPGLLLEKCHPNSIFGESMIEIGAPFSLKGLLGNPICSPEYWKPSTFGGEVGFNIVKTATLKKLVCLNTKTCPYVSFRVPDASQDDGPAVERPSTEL

CCCCCCCCCCCCCCC(=O)O [C15:0, Pentadecanoic acid] was tested, and the IC50 [1] was 2.51 µM, the IC50 [2] was 19.4 µM and the inhibition at 20 µM [3] was 1.5%. The inhibition at 20 µM [4] was 44.7%, the inhibition at 20 µM [5] was 2.5% and the inhibition at 20 µM (Cyclooxygenase COX-1) was -17%. The inhibition at 20 µM (Cyclooxygenase COX-2) was 5.3%, the inhibition at 20 µM [6] was 70.3% and the inhibition at 20 µM (IDO1) was 39.4%. For the same molecule, the inhibition at 20 µM (Lipoxygenase 15-LOX-2) was 8%, the inhibition at 20 µM (Monoamine Oxidase MAO-A) was 11.4% and the inhibition at 20 µM (Monoamine Oxidase MAO-B) was 64.7%. The inhibition at 20 µM (Myeloperoxidase) was 44.8%, the inhibition at 20 µM [7] was 2.4% and the inhibition at 20 µM [8] was -35.2%. For the same molecule, the inhibition at 20 µM [9] was 7.1%, the inhibition at 20 µM [10] was 2.1% and the inhibition at 20 µM [11] was 15%. It also gave an inhibition at 20 µM [12] of -14.8%, an inhibition at 20 µM [13] of -16.2% and an inhibition at 20 µM [14] of -28.1%. For the same molecule, the inhibition at 20 µM (Adenosine A2A) was 10.7%, the inhibition at 20 µM (Chemokine CX3CR1) was 5.3% and the inhibition at 20 µM [15] was 0%. It also gave an inhibition at 20 µM (Histamine H3) of 1.7%, an inhibition at 20 µM (Muscarinic M1) of 9% and an inhibition at 20 µM [16] of -9.1%. For the same molecule, the inhibition at 20 µM [17] was -6.6%, the inhibition at 20 µM [18] was 3.9% and the inhibition at 20 µM [19] was -1.7%. For the same molecule, the inhibition at 20 µM [20] was -16.1%, the inhibition at 20 µM (Sigma1) was -18.6% and the inhibition at 20 µM (Somatostatin sst4) was -4.4%.
